In ChEMBL document CHEMBL1201862, “PubChem BioAssay data set” (2004):
Activity calls are given as the source filed them.

Assays:
Ephrin type-A receptor 4 = Ephrin type-A receptor 4 (Mus musculus, UniProt Q03137); assay: inhibitors of EphA4 binding to KYL peptide, primary screen, biochemical, colorimetric, mouse EphA4 (AID 689); type: functional
Keap1/Nrf2 = Keap1/Nrf2 (Homo sapiens, UniProt Q14145); assay: Keap1-Nrf2 protein-protein interaction inhibitors, dose response, biochemical, fluorescence polarization, cherry-picked samples (AID 588683)
Chain of Keap1/Nrf2 (Q16236 whole entry): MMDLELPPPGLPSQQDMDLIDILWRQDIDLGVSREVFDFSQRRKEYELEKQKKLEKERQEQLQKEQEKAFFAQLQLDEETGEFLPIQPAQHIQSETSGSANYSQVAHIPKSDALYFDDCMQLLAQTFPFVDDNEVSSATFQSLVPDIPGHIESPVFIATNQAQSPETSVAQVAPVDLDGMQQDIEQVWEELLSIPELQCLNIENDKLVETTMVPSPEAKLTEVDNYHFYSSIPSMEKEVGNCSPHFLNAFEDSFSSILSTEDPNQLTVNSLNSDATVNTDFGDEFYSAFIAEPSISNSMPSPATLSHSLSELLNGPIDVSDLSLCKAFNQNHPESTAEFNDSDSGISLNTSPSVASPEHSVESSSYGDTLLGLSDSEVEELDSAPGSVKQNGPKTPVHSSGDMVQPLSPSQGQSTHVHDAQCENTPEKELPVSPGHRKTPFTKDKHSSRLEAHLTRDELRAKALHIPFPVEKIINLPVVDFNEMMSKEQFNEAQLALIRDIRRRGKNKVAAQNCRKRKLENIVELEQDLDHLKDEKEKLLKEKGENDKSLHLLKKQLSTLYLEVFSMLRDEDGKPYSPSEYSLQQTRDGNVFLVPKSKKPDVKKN
Chain of Keap1/Nrf2 (Q14145 whole entry): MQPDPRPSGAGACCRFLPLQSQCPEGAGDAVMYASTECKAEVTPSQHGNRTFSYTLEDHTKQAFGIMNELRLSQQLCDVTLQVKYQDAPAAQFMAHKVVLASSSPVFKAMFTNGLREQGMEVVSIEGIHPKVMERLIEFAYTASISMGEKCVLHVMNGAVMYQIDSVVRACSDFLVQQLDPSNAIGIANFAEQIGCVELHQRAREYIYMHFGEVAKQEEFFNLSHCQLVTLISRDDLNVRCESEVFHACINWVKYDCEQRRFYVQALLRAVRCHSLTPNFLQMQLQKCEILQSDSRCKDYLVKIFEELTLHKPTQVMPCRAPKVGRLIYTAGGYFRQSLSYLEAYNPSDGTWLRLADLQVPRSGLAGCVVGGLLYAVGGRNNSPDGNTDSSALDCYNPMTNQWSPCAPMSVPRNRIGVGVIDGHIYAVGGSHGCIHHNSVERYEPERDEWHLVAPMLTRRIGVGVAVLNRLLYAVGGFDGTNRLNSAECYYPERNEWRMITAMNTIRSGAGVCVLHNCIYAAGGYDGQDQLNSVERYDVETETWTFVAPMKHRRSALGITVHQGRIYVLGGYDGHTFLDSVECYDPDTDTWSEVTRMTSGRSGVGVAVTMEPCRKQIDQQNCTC

HeLa = assay: HeLa cell cytotoxicity, dose response, cytotoxicity control, 24 h, cherry-picked samples (AID 504726); type: functional, cell-based; details: Homo sapiens;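 also: potency for cytotoxicity as loss of luminescence signal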
[1] = molecular target: T1, Endoribonuclease toxin MazF (Escherichia coli K-12, UniProt P0AE70); assay: MazF toxin RNase activators, dose response, biochemical, fluorescence, single-stranded RNA substrate, uHTS hits (AID 588481); type: functional
T1 sequence (P0AE70 whole entry): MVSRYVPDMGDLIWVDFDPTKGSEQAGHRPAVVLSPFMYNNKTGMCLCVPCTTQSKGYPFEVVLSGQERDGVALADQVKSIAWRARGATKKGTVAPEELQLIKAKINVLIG

ORF 73 = ORF 73 (Human herpesvirus 8, UniProt O40947); assay: inhibitors of C-LANA binding to LBS DNA, dose response, biochemical, fluorescence polarization, cherry-picked samples (AID 504725); design: species or system Human gammaherpesvirus 8;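 also: fluorescence polarization of a labeled DNA duplex reporting LANA DNA binding; potency is for inhibitors that block LANA binding to the DNA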
[2] = molecular target: T2, Corticotropin-releasing factor receptor 2/Corticotropin-releasing factor-binding protein (Homo sapiens, UniProt P24387+Q13324); assay: activators of CRF receptor 2 with binding protein – uHTS hits, confirmation (AID 602473); type: functional; details: read-out: EC50_Mean
T2 sequence (Q13324 whole entry): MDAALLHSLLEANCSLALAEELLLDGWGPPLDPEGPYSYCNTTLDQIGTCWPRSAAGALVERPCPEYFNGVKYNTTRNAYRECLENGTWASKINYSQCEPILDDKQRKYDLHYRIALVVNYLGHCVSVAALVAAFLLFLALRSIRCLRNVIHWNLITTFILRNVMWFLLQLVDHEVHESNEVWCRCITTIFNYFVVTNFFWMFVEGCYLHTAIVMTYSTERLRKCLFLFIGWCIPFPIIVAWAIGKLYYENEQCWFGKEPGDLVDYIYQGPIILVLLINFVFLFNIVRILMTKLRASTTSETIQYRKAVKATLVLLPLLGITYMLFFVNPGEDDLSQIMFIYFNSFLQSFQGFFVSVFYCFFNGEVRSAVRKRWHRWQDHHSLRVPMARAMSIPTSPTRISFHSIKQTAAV
T2 sequence (P24387 whole entry): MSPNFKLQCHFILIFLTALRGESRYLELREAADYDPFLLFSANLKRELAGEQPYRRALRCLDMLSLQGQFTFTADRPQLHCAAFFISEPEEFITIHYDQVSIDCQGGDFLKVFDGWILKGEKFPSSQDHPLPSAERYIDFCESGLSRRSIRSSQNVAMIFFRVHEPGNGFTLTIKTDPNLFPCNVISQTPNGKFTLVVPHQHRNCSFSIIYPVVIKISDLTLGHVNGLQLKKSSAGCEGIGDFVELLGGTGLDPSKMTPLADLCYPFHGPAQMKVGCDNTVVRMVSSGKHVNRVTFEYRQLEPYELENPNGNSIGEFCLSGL

Troponin, cardiac muscle = Troponin, cardiac muscle (Homo sapiens, UniProt P19429+P45379+P63316); assay: Fluorescence-based biochemical high throughput dose response assay for activators of the calcium sensitivity of cardiac Regulated Thin Filaments (RTF). [Related pubchem assays (depositor defined):AID493008, AID493018, AID504382, AID504383]; type: protein-complex assay
CHO = assay: cytotoxicity in TLR9-MyD88 CHO cells, dose response, cytotoxicity control for TLR9-MyD88 binding inhibitor project, cell-based, luminescence (AID 588339); type: functional, hamster; details: Cricetulus griseus;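 also: CHO cells stably coexpressing TLR9 and MyD88 fusions from primary screen; compound exposure lasted 48 hours before viability readout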
Beta Lactamase = Beta Lactamase (Pseudomonas aeruginosa, UniProt Q932Y6); assay: beta-lactamase reporter inhibitor potency, dose response, artefact control for TLR9-MyD88 binding inhibitor project, BLA reporter cells, FRET fluorescence (AID 588341); type: cell-based;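 also: cell based assay in CHO-K1 cells stably expressing beta-lactamase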
Chain of Beta Lactamase (Q932Y6 whole entry): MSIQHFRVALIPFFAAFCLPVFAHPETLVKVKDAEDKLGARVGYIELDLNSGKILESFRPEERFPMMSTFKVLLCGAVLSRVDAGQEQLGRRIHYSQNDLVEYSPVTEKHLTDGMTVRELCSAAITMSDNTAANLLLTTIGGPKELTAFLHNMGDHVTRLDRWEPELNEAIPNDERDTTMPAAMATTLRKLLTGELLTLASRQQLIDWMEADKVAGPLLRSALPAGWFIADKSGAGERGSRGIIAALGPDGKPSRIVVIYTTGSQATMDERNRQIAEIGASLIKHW

[3] = molecular target: T1, Endoribonuclease toxin MazF; assay: fluorescent RNA oligo signal without MazF, dose response, counter-screen for MazEF activator project, biochemical, fluorescence, single-stranded RNase substrate (AID 588502); type: functional
cells [4] = type: functional, cell-based
[5] = inhibitors of intracellular T. cruzi replication, confirmation, NIH3T3 host cells, beta-gal luminescence (AID 2044); type: functional, cell-based;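 also: intracellular parasites grown in NIH/3T3 mouse fibroblasts as host cells; luminescent beta-galactosidase reporter signal from transgenic T. cruzi replicating inside host cells; inhibitors lower the luminescence signal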
Streptokinase A = molecular target: T3, Streptokinase A (Streptococcus pyogenes serotype M1, UniProt P10520); assay: S. pyogenes streptokinase expression inhibitors, potency, dose response, plasminogen activation absorbance, OD405 (AID 1914); type: functional, Streptococcus pyogenes M1 GAS;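 also: secreted streptokinase activity via plasminogen activation per viability signal from cell pellet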
T3 sequence (P10520 whole entry): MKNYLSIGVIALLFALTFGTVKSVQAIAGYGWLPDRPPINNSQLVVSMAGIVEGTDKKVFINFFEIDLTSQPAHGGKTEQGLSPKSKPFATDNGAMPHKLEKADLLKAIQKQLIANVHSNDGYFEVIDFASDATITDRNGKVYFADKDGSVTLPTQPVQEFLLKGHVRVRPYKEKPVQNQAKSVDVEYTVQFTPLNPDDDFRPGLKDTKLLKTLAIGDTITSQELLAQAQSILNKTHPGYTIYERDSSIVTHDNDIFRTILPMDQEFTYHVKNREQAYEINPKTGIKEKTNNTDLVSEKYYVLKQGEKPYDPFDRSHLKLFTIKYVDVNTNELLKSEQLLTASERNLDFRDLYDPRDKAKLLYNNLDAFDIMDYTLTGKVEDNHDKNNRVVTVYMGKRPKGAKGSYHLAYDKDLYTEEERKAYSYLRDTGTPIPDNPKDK

[6] = molecular target: ATP-dependent molecular chaperone HSP82 (Candida albicans (strain WO-1) (Yeast), UniProt C4YTQ8); assay: loss of DOC-induced GRE-beta-galactosidase reporter signal, dose response, Hsp90 inhibitor project, S. cerevisiae, luminescence (AID 2400); type: functional, cell-based;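 also: beta-galactosidase luminescence from glucocorticoid response element reporter as proxy for Hsp90 function; inhibitor potency where signal loss means Hsp90 inhibition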
Exodeoxyribonuclease V = Exodeoxyribonuclease V (Escherichia coli (strain K12), UniProt P04993+P07648+P08394); assay: E. coli RecBCD inhibitors, dose response, counter-screen for AddAB inhibitor project, absorbance, V66 E. coli, mutant T4 phage (AID 492957); type: functional, cell-based, Escherichia coli str. K-12 substr. MG1655
Chain of Exodeoxyribonuclease V (P04993 whole entry): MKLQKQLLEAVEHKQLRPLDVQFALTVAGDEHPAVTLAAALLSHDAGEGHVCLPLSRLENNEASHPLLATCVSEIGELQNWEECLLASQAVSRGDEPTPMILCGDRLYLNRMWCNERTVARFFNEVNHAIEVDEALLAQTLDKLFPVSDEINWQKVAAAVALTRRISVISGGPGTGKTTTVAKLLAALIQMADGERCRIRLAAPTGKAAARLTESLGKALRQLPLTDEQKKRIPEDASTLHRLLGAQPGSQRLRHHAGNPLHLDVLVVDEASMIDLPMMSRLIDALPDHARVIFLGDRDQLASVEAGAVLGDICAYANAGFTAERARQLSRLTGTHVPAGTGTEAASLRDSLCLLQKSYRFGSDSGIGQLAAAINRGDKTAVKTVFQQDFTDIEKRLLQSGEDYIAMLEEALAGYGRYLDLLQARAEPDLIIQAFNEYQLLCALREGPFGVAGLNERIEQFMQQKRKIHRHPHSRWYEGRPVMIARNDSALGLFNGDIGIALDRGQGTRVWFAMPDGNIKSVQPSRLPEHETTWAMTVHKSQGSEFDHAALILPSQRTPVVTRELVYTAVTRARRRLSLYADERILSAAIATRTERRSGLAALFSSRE
Chain of Exodeoxyribonuclease V (P07648 whole entry): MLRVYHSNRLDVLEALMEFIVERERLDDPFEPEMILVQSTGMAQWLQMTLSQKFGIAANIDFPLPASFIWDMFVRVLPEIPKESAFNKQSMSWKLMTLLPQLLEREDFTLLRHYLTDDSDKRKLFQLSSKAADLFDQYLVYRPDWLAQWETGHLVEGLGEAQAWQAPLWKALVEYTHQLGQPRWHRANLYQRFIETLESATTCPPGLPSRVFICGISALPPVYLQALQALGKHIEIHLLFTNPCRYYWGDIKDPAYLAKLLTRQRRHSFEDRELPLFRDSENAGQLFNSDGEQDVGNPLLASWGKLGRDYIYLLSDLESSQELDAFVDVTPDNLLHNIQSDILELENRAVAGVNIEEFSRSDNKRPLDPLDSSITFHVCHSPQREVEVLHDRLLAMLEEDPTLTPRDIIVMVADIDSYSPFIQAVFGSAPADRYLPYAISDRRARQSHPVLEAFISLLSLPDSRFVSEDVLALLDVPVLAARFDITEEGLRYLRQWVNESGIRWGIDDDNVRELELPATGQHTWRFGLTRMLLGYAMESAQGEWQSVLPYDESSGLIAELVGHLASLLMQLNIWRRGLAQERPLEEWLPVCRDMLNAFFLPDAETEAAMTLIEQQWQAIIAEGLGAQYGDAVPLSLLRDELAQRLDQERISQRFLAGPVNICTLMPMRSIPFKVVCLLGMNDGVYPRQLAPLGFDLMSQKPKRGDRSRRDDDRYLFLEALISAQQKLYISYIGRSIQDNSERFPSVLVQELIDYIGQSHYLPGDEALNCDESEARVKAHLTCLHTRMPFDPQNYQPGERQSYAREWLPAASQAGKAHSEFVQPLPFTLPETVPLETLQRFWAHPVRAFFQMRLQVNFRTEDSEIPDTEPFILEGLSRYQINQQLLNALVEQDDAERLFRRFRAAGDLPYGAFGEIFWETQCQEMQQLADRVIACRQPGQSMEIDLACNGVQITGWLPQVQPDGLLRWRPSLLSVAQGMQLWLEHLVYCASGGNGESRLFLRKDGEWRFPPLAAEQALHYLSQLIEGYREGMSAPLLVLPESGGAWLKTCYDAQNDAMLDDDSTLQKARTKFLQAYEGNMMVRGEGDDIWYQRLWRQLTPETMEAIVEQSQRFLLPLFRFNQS
Chain of Exodeoxyribonuclease V (P08394 whole entry): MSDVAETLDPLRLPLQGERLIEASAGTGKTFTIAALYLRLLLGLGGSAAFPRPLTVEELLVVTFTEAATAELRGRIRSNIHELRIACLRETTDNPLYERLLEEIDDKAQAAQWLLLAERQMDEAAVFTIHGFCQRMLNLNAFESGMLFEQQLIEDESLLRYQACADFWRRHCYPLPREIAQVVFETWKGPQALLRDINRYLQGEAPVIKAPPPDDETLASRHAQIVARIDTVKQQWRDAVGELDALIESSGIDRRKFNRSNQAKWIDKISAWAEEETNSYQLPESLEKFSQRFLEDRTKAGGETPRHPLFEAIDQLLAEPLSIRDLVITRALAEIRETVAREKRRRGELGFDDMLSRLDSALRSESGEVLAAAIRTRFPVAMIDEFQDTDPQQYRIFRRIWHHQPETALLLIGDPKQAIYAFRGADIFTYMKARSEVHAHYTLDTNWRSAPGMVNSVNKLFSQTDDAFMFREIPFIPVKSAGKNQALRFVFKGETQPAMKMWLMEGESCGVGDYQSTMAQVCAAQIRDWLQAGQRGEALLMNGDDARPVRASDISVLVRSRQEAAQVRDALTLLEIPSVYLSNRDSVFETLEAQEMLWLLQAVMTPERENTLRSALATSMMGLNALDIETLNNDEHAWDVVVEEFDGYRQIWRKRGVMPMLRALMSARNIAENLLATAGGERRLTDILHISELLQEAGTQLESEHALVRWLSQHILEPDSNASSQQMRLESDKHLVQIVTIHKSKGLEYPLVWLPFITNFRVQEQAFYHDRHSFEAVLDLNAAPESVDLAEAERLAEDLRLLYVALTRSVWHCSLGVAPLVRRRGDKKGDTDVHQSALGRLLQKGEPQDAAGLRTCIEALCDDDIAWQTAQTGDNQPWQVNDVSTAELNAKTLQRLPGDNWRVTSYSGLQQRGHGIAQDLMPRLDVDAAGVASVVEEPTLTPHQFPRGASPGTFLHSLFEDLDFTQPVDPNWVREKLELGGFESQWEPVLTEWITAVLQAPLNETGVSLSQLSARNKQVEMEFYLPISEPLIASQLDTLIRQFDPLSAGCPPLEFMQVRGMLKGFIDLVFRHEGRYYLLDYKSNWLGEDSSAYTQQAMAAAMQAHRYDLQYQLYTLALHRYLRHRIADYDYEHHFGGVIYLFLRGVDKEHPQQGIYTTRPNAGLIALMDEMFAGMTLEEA

[7] = Counterscreen for AddAB inhibitors: absorbance-based bacterial cell-based high throughput dose response assay for inhibitors of bacterial viability. [Related pubchem assays (depositor defined):AID435030, AID449728, AID449731, AID488942, AID488955, AID488956]; type: functional
HEK293 [8] = assay: SAR Analysis of small molecule inhibitors of T-cell specific antigen receptor-induced NF-kB activation in a HEK-293T cell line using a luminescence assay. [Related pubchem assays (depositor defined):AID435003, AID435012, AID489026]; type: functional, cell-based; details: Homo sapiens
[9] = cytotoxicity in HEK-293T cells, dose response, cytotoxicity control for TCR NF-kB inhibitor project, luminescence, T-cell screen hits (AID 489026); type: functional, cell-based;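 also: cells exposed to compound about 14 hours before the viability readout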
[10] = C. albicans growth with fluconazole, confirmation, fluorescence, retest (AID 2467); type: functional, cell-based
[11] = NIH-3T3 fibroblast cytotoxicity, dose response, cytotoxicity control, cell-based, fluorescence, Alamar Blue, secondary assay (AID 2327); type: functional;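 also: NIH-3T3 mouse fibroblasts cultured with fluconazole at 8 µg/mL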
[12] = Luminescence-based dose response cell-based high throughput screening assay for cytotoxic compounds using the IEC-6 intestinal epithelial cell line. [Related pubchem assays: 1858 (Summary AID.), 1825 (Counterscreen.), 1907 (Confirmation screen.)]; type: functional
INS1 = assay: beta cell apoptosis inhibitors, cytokine rescue, dose response, luminescence, retest (AID 449756); type: functional, cell-based; details: Rattus norvegicus;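 also: cell death triggered by IL-1 beta plus TNF-alpha plus IFN-gamma mixture; protective hits raise ATP signal compared with cytokine alone wells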
[13] = cytotoxicity toward NIH3T3 fibroblasts, dose response, counter-screen, cell-based, ATP luminescence, mouse fibroblasts (AID 2010); type: functional;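 also: cells exposed to compound for about 90 hours before reading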
Jurkat [14] = assay: SAR Analysis of small molecule inhibitors of T-cell specific antigen receptor-induced NF-kB activation in a Jurkat cell line using a luminescence assay - Set 2. [Related pubchem assays (depositor defined):AID435003, AID435012, AID465]; type: functional, cell-based; details: Homo sapiens
[15] = test system: Streptococcus sp. 'group A'; assay: growth inhibition of control SK(-) GAS strain, dose response, counter-screen for streptokinase expression inhibitor project, luminescence, kanamycin, BacTiterGlo, confirmation (AID 1900); type: functional, organism-based
[16] = molecular target: Heat shock protein HSP 90-alpha (Homo sapiens, UniProt P07900); type: functional, organism-based
HEK293 [17] = assay: SAR Analysis of small molecule inhibitors of T-cell specific antigen receptor-induced NF-kB activation in a HEK-293T cell line using a luminescence assay - Set 2. [Related pubchem assays (depositor defined):AID435003, AID435012, AID489026]; type: functional, cell-based; details: Homo sapiens
HEK293 [18] = assay: cytotoxicity in HEK293T NF-kB-Luc cells, SAR follow-up, cytotoxicity control for NF-kB activator project, cell-based, resazurin fluorescence (AID 493251); type: functional
[19] = molecular target: T4, Serine/threonine-protein phosphatase (Candida dubliniensis (strain CD36 / CBS 7987 / NCPF 3949 / NRRLY-17841) (Yeast), UniProt B9W6M3); assay: calcineurin pathway inhibitors in yeast reporter, dose response, S. cerevisiae, CDRE-lacZ, luminescence, secondary (AID 2388); type: functional, cell-based;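 also: yeast reporter cells carrying a calcineurin-responsive lacZ construct stimulated with calcium chloride; luminescent beta-galactosidase reporter signal in whole cells rather than isolated phosphatase activity; potency for inhibition where a drop in reporter signal means calcineurin blockade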
T4 sequence (B9W6M3 whole entry): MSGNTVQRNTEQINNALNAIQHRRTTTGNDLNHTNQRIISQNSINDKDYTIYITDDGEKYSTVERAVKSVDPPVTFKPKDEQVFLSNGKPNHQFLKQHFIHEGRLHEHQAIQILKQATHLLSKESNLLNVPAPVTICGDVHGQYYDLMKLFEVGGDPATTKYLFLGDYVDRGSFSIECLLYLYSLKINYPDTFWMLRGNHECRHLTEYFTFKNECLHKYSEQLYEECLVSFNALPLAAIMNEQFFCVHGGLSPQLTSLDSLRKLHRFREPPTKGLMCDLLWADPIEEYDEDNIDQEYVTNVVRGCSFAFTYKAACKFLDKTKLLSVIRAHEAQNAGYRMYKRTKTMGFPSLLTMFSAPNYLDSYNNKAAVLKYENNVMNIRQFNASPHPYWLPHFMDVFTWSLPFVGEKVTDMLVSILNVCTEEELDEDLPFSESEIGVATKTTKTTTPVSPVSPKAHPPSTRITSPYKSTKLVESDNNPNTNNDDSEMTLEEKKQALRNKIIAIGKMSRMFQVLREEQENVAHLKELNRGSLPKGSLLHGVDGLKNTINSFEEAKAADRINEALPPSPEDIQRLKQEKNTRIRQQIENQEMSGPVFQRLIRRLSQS

Jurkat [20] = assay: SAR Analysis of small molecule inhibitors of T-cell specific antigen receptor-induced NF-kB activation in a Jurkat cell line using a luminescence assay. [Related pubchem assays (depositor defined):AID435003, AID435012, AID465]; type: functional, cell-based; details: Homo sapiens
cells [21] = type: functional, cell-based; remark: listed apart in the source
HEK293 [22] = assay: inhibitors of LMP1-driven NF-kB reporter, dose response, cell-based, HEK293, luciferase, cherry-pick (AID 588343); type: functional; details: Homo sapiens
Streptococcus = assay: Group A Streptococcus viability loss, dose response, counter-screen for streptokinase expression inhibitor project, luminescence, BacTiterGlo (AID 1915); type: functional, organism-based;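 also: potency for reduction of bacterial viability or growth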

CCn1nc(-c2ccccc2)c2nc3ccccc3nc21
IC50 (Ephrin type-A receptor 4): 5.45 µM (active) | AC50 (Keap1/Nrf2): 39.5 µM (active) | AC50 (HeLa): 96.5 µM (active) | EC50 [1]: > 99 µM (inactive) | AC50 (ORF 73): 30.9 µM (active) | EC50 [2]: 6.66 µM (active) | EC50 (Troponin, cardiac muscle): 5.55 µM (active) | IC50 (CHO): > 49.7 µM (inactive) | IC50 (Beta Lactamase): 5.36 µM (active) | EC50 [3]: 84 µM (inactive)

CCCC(=O)NC(c1ccc(C)cc1)c1ccc2cccnc2c1O (centres undefined)
EC50 (cells [4]): > 350 µM (not active) | EC50 [5]: 0.348 µM (active) | EC50 (Streptokinase A): > 150 µM (not active) | EC50 [6]: > 150 µM (inactive) | IC50 (Exodeoxyribonuclease V): > 119 µM (inactive) | IC50 [7]: > 119 µM (inactive) | IC50 (HEK293 [8]): 6.94 µM (active) | IC50 [9]: > 80 µM (inactive) | EC50 [10]: 0.449 µM (active) | EC50 [11]: 23.6 µM (inconclusive) | IC50 [12]: 1.47 µM (active) | AC50 (INS1): 0.535 µM (active) | EC50 [13]: 0.588 µM (active) | IC50 (Jurkat [14]): 2.52 µM (active) | EC50 [15]: 6.65 µM (active) | AC50 [16]: 3.35 µM (active) | IC50 (HEK293 [17]): 6.36 µM (active) | IC50 (HEK293 [18]; Homo sapiens, HEK293): 8.08 µM (active) | IC50 (HEK293 [18]; hek293): 5.93 µM (active) | EC50 [19]: > 180 µM (inactive) | IC50 (Jurkat [20]): 3.79 µM (active) | EC50 (cells [21]): 6.34 µM (active) | AC50 (HEK293 [22]): 4.94 µM (active) | EC50 (Streptococcus): 14.7 µM (active)
